“And” between values parts separate entries of the source, which are not always exact repeats. Identical values can stand only once. Toxic doses and inconclusive results are not listed.

Here are results for 22 compounds from PubChem BioAssay AID256 (DTP/NCI, 2004).

The experiment relates to CD2F1 mice, L1210 leukemia ip, survival T/C. Briefly: NCI In Vivo Anticancer Drug Screen. Data for tumor model L1210 Leukemia (intraperitoneal) in CD2F1 (CDF1) mice. As to conditions: higher = longer survival. In a few lines:
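Read-out first: treated-group measurement over vehicle-control measurement, expressed as a ratio. Animals bore a transplanted tumor line and were dosed with compound or vehicle.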

[1] abbreviates: endpoint: mean survival time, dose: 100.0 mg/kg/injection, schedule: Q04DX002 (ip), vehicle: saline with Tween-80.
Setting [2] is: endpoint: mean survival time, dose: 200.0 mg/kg/injection, schedule: Q04DX002 (ip), vehicle: saline with Tween-80.
Setting [3] is: endpoint: mean survival time, dose: 25.0 mg/kg/injection, schedule: Q01DX009 (ip), vehicle: saline with Tween-80.
Setting [4] is: endpoint: mean survival time, dose: 50.0 mg/kg/injection, schedule: Q01DX009 (ip), vehicle: saline with Tween-80.
Setting [5] is: endpoint: mean survival time, dose: 100.0 mg/kg/injection, schedule: Q01DX009 (ip), vehicle: saline with Tween-80.
Where [6] appears, read: endpoint: mean survival time, dose: 5.0 mg/kg/injection, schedule: Q01DX009 (ip), vehicle: Klucel (hydroxypropylcellulose) (HPC).
[7] abbreviates: endpoint: mean survival time, dose: 10.0 mg/kg/injection, schedule: Q01DX009 (ip), vehicle: Klucel (hydroxypropylcellulose) (HPC).
The mark [8] stands for this setting: endpoint: mean survival time, dose: 400.0 mg/kg/injection, schedule: Q04DX002 (ip), vehicle: saline with Tween-80.
The mark [9] stands for this setting: endpoint: mean survival time, dose: 200.0 mg/kg/injection, schedule: Q01DX009 (ip), vehicle: saline with Tween-80.
[10] abbreviates: endpoint: mean survival time, dose: 400.0 mg/kg/injection, schedule: Q01DX009 (ip), vehicle: saline with Tween-80.
Setting [11] is: endpoint: mean survival time, dose: 100.0 mg/kg/injection, schedule: Q01DX001 (ip), vehicle: saline.
[12] abbreviates: endpoint: mean survival time, dose: 200.0 mg/kg/injection, schedule: Q01DX001 (ip), vehicle: saline.
[13] abbreviates: endpoint: mean survival time, dose: 400.0 mg/kg/injection, schedule: Q01DX001 (ip), vehicle: saline.

For `COc1ccc(OC)c2c1CCC(=O)C2`, the T/C is 102 % of control (endpoint: mean survival time, dose: 12.5 mg/kg/injection, schedule: Q01DX009 (ip), vehicle: other); 104 % of control (endpoint: mean survival time, dose: 25.0 mg/kg/injection, schedule: Q01DX009 (ip), vehicle: other); 102 % of control (endpoint: mean survival time, dose: 50.0 mg/kg/injection, schedule: Q01DX009 (ip), vehicle: other); 107 % of control (endpoint: mean survival time, dose: 100.0 mg/kg/injection, schedule: Q01DX009 (ip), vehicle: other); 107 % of control (endpoint: mean survival time, dose: 200.0 mg/kg/injection, schedule: Q01DX009 (ip), vehicle: other).
For `C[N+](C)(C)C1CCCC1O` (configuration not stated), the T/C is, setting by setting: (endpoint: mean survival time, dose: 25.0 mg/kg/injection, schedule: Q04DX002 (ip), vehicle: saline with Tween-80) 98 % of control; (endpoint: mean survival time, dose: 50.0 mg/kg/injection, schedule: Q04DX002 (ip), vehicle: saline with Tween-80) 98 % of control; under setting [1], 95 % of control; under setting [2], 95 % of control.
For the compound `O=[N+]([O-])c1ccc(/C=N\Nc2ccc([N+](=O)[O-])cn2)cc1`, the T/C (endpoint: mean survival time, dose: 50.0 mg/kg/injection, schedule: Q04DX003 (ip), vehicle: saline sonified) is 96 % of control; the T/C (endpoint: mean survival time, dose: 100.0 mg/kg/injection, schedule: Q04DX003 (ip), vehicle: saline sonified) was 89 % of control; the T/C (endpoint: mean survival time, dose: 200.0 mg/kg/injection, schedule: Q04DX003 (ip), vehicle: saline sonified) was 96 % of control.
Turning to `O=C(O)CCCSc1nn(C2OC(CO)C(O)C2O)c(=O)[nH]c1=O` (configuration not stated), the T/C is 104 % of control (endpoint: mean survival time, dose: 12.5 mg/kg/injection, schedule: Q01DX005 (ip), vehicle: water); 104 % of control (endpoint: mean survival time, dose: 25.0 mg/kg/injection, schedule: Q01DX005 (ip), vehicle: water); 104 % of control (endpoint: mean survival time, dose: 50.0 mg/kg/injection, schedule: Q01DX005 (ip), vehicle: water); 101 % of control (endpoint: mean survival time, dose: 100.0 mg/kg/injection, schedule: Q01DX005 (ip), vehicle: water); 101 % of control (endpoint: mean survival time, dose: 200.0 mg/kg/injection, schedule: Q01DX005 (ip), vehicle: water).
Consider `COc1ccc(N=C(N)N=C(N)N)cc1`, for which the T/C by setting is: under setting [3], 102 % of control; under setting [4], 96 % of control; under setting [5], 106 % of control.
Turning to `C/C=C(\C)C(=O)O[C@@H]1c2cc3c(cc2-c2c(cc(OC)c(OC)c2OC)[C@@H]2C(=O)OC[C@@H]12)OCO3`, the T/C runs as follows: (endpoint: mean survival time, dose: 1.25 mg/kg/injection, schedule: Q01DX009 (ip), vehicle: Klucel (hydroxypropylcellulose) (HPC)) 112 % of control; (endpoint: mean survival time, dose: 2.5 mg/kg/injection, schedule: Q01DX009 (ip), vehicle: Klucel (hydroxypropylcellulose) (HPC)) 106 % of control; under setting [6], 106 % of control; under setting [7], 95 % of control.
As to `CCCCCCCC/C=C\CCCCCCCC(=O)OCCCCCC`, the T/C by setting is: under setting [1], 91 % of control; under setting [2], 102 % of control; under setting [8], 95 % of control.
`O.[Cl][Pt].[S-]CCN1CCOCC1`: the T/C by setting is: (endpoint: mean survival time, dose: 12.5 mg/kg/injection, schedule: Q04DX003 (ip), vehicle: distilled water + Tween-80) 96 % of control; (endpoint: mean survival time, dose: 25.0 mg/kg/injection, schedule: Q04DX003 (ip), vehicle: distilled water + Tween-80) 98 % of control; (endpoint: mean survival time, dose: 50.0 mg/kg/injection, schedule: Q04DX003 (ip), vehicle: distilled water + Tween-80) 102 % of control; (endpoint: mean survival time, dose: 100.0 mg/kg/injection, schedule: Q04DX003 (ip), vehicle: distilled water + Tween-80) 98 % of control; (endpoint: mean survival time, dose: 200.0 mg/kg/injection, schedule: Q04DX003 (ip), vehicle: distilled water + Tween-80) 96 % of control.
`CN(C)C(=S)[S][Sn]([CH3])([CH3])[CH3]`: the T/C reads like this: (endpoint: mean survival time, dose: 0.39 mg/kg/injection, schedule: Q01DX009 (ip), vehicle: saline) 115 % of control; (endpoint: mean survival time, dose: 0.78 mg/kg/injection, schedule: Q01DX009 (ip), vehicle: saline) 107 % of control; (endpoint: mean survival time, dose: 1.56 mg/kg/injection, schedule: Q01DX009 (ip), vehicle: saline) 95 % of control.
Regarding `COC(=O)C1CN=NC1C(=O)OC` (configuration not stated), the T/C under setting [5] was 95 % of control, the T/C under setting [9] was 95 % of control and the T/C under setting [10] was 91 % of control.
Turning to `Cc1cc(C)c(CC(C)C)c(C)c1`, the T/C reads like this: under setting [11], 98 % of control; under setting [12], 98 % of control; under setting [13], 98 % of control.
As to `C[n+]1c(-c2ccc(NC(=O)c3ccc(C(=O)Nc4ccc(-c5cn6ccccc6[n+]5C)cc4)cc3)cc2)cn2ccccc21`, the T/C (endpoint: median survival time, dose: 5.4 mg/kg/injection, schedule: Q01DX005 (ip), vehicle: saline with Tween-80) is 200 % of control; the T/C (endpoint: median survival time, dose: 6.25 mg/kg/injection, schedule: Q01DX005 (ip), vehicle: saline with Tween-80) was 168 % of control; the T/C (endpoint: median survival time, dose: 9.0 mg/kg/injection, schedule: Q01DX005 (ip), vehicle: saline with Tween-80) was 211 % of control; the T/C (endpoint: median survival time, dose: 12.5 mg/kg/injection, schedule: Q01DX005 (ip), vehicle: saline with Tween-80) is 200 % of control; the T/C (endpoint: median survival time, dose: 15.0 mg/kg/injection, schedule: Q01DX005 (ip), vehicle: saline with Tween-80) was 352 % of control; the T/C (endpoint: median survival time, dose: 25.0 mg/kg/injection, schedule: Q01DX005 (ip), vehicle: saline with Tween-80) is 312 % of control and 341 % of control. Further, the T/C by setting is: (endpoint: median survival time, dose: 42.0 mg/kg/injection, schedule: Q01DX005 (ip), vehicle: saline with Tween-80) 152 % of control; (endpoint: median survival time, dose: 100.0 mg/kg/injection, schedule: Q01DX005 (ip), vehicle: saline with Tween-80) 86 % of control; (endpoint: median survival time, dose: 116.0 mg/kg/injection, schedule: Q01DX005 (ip), vehicle: saline with Tween-80) 109 % of control.
Consider `Cc1cc(NC(=O)NCCOc2ccc(N3C(N)=NC(N)=NC3(C)C)cc2Cl)ccc1S(=O)(=O)F`, for which the T/C by setting is: (endpoint: mean survival time, dose: 12.5 mg/kg/injection, schedule: Q04DX003 (ip), vehicle: saline with Tween-80) 107 % of control; (endpoint: mean survival time, dose: 25.0 mg/kg/injection, schedule: Q04DX003 (ip), vehicle: saline with Tween-80) 102 % of control; (endpoint: mean survival time, dose: 50.0 mg/kg/injection, schedule: Q04DX003 (ip), vehicle: saline with Tween-80) 91 % of control.
On to `CCCSCCSCCC`, for which the T/C under setting [3] was 103 % of control, the T/C under setting [4] is 103 % of control and the T/C under setting [5] is 117 % of control.
On to `COc1c(CBr)c(CBr)c(OC)c2ccccc12`, for which the T/C reads like this: (endpoint: mean survival time, dose: 100.0 mg/kg/injection, schedule: Q04DX003 (ip), vehicle: saline with Tween-80) 101 % of control; (endpoint: mean survival time, dose: 200.0 mg/kg/injection, schedule: Q04DX003 (ip), vehicle: saline with Tween-80) 100 % of control; (endpoint: mean survival time, dose: 400.0 mg/kg/injection, schedule: Q04DX003 (ip), vehicle: saline with Tween-80) 101 % of control.
Consider `CSC#N`, for which the T/C by setting is: under setting [6], 102 % of control; under setting [7], 102 % of control.
Regarding `COc1ccc(NC(=O)CCl)c(OC)c1`, the T/C under setting [1] was 108 % of control, the T/C under setting [2] is 97 % of control and the T/C under setting [8] was 97 % of control.
Turning to `CC(C)(C)OC(=O)NC(CCC(=O)OCc1ccccc1)C(=O)O` (configuration not stated) (tested in a mixture with another compound), the T/C is 91 % of control under setting [3]; 96 % of control and 98 % of control under setting [5].
For `CCCCCCCCCCCC(CCCCCCC)c1ccc(C)cc1` (configuration not stated), the T/C is 91 % of control under setting [11], 94 % of control under setting [12] and 97 % of control under setting [13].
With `CN(C)N=C1CCCCCC1`, the T/C (endpoint: mean survival time, dose: 75.0 mg/kg/injection, schedule: Q01DX001 (ip), vehicle: saline) is 102 % of control and the T/C (endpoint: mean survival time, dose: 150.0 mg/kg/injection, schedule: Q01DX001 (ip), vehicle: saline) was 98 % of control.
Turning to `N/C=N/O`, the T/C by setting is: (endpoint: mean survival time, dose: 66.0 mg/kg/injection, schedule: Q01DX009 (ip), vehicle: saline) 112 % of control; (endpoint: mean survival time, dose: 100.0 mg/kg/injection, schedule: Q01DX009 (ip), vehicle: saline) 120 % of control and 110 % of control; (endpoint: mean survival time, dose: 400.0 mg/kg/injection, schedule: Q01DX009 (ip), vehicle: saline) 114 % of control.
For the compound `O=C(Cc1nc2ccccc2[nH]c1=O)N/N=C/c1ccc2c(c1)CCC2`, the T/C reads like this: under setting [5], 92 % of control; under setting [9], 88 % of control; under setting [10], 88 % of control.
